≈ marks a conversion by molar mass, not a printed value. Read-outs that look alike come from different tables or passages of the source.
Assays:
[1] = test system: Prot.mirab. L 93; experiment: micro serial dilution test; format: cell-based; conditions: Proteus mirabilis, read-out: minimal inhibitory concentration (MIC)
[2] = test system: Pseud.aerug. 2396; experiment: micro serial dilution test; format: cell-based; conditions: read-out: minimal inhibitory concentration (MIC)
[3] = test system: Dipl.pneum. L 54; experiment: micro serial dilution test; format: cell-based, Diplococcus pneumoniae; conditions: Streptococcus pneumoniae, read-out: minimal inhibitory concentration (MIC)
[4] = test system: Shig.equir. T 3; experiment: micro serial dilution test; format: cell-based; conditions: micro serial dilution (in brackets), about 18 hours, 30° C. or 37° C.; read-out: minimal inhibitory concentration (MIC)
Text: Two drops of a stock solution of the test compound (antibiotic) in a known concentration were brought into the first hole of a test plate with 9 numbered holes with a sterile Pasteur pipette. After rinsing this pipette three times with a physiological NaCl-solution, two drops of a stock solution of the test organism in a culture medium were brought in all the holes except for hole 8. In the first hole, the solution of the tested compound had been half diluted, then by stirring the liquid in the first hole and adding two drops of this mixture to the second hole and so on until hole 8, dilutions of the test compound solution were obtained in geometrical progression. The hole 9 contained no antibiotic and served for checking the growth of the testogranism in a blank medium. The test plate was incubated at 30° C. or 37° C. for about 18 hours.

[5] = test system: Strep. faec. L 80; experiment: micro serial dilution test; format: cell-based, Streptococcus faecalis; conditions: Enterococcus faecalis, read-out: minimal inhibitory concentration (MIC)
[6] = test system: Pseud.aerug. H 10; experiment: micro serial dilution test; format: cell-based; conditions: read-out: minimal inhibitory concentration (MIC)
[7] = test system: Prot.mirab. H 3; experiment: micro serial dilution test; format: cell-based; conditions: Proteus mirabilis, read-out: minimal inhibitory concentration (MIC)
[8] = test system: Bruc.melit. A 488; experiment: microbe, parasite or virus in culture; format: cell-based; conditions: Brucella melitensis, 18 h, read-out: minimal inhibitory concentration (MIC)
[9] = test system: Prot.morg. 2241; experiment: micro serial dilution test; format: cell-based; conditions: read-out: minimal inhibitory concentration (MIC)
[10] = test system: Pseud.aerug. Wyeth A 1058; experiment: micro serial dilution test; format: cell-based; conditions: read-out: minimal inhibitory concentration (MIC)
[11] = test system: Prot.rettg. A 821; experiment: micro serial dilution test; format: cell-based, Proteus rettgeri; conditions: Providencia rettgeri, read-out: minimal inhibitory concentration (MIC)
[12] = test system: Past.multo. A 723; experiment: micro serial dilution test; format: cell-based; conditions: Pasteurella multocida, read-out: minimal inhibitory concentration (MIC)
[13] = test system: Staph.aureus A 321; experiment: micro serial dilution test; format: cell-based; conditions: Staphylococcus aureus, read-out: minimal inhibitory concentration (MIC)
[14] = test system: Haem.infl. A 1030; experiment: micro serial dilution test; format: cell-based; conditions: 18 h, read-out: minimal inhibitory concentration (MIC)
[15] = test system: Esch.coli U 20; experiment: micro serial dilution test; format: cell-based; conditions: Escherichia coli, read-out: minimal inhibitory concentration (MIC)
[16] = test system: Bac.Subt.ATCC 6633; experiment: micro serial dilution test; format: cell-based; conditions: Bacillus subtilis, read-out: minimal inhibitory concentration (MIC)
[17] = test system: Staph.aureus A 355; experiment: micro serial dilution test; format: cell-based, Staphylococcus aureus; conditions: Staphylococcus aureus, read-out: minimal inhibitory concentration (MIC)
[18] = test system: Strep.haem. A 266; experiment: micro serial dilution test; format: cell-based, Streptococcus haemolyticus; conditions: Streptococcus, read-out: minimal inhibitory concentration (MIC)
[19] = test system: Salm.dubl. P 43; experiment: micro serial dilution test; format: cell-based, Salmonella dublin; conditions: Salmonella enterica, read-out: minimal inhibitory concentration (MIC)
[20] = test system: Kleb.pneum. A 809; experiment: micro serial dilution test; format: cell-based; conditions: Klebsiella pneumoniae, read-out: minimal inhibitory concentration (MIC)
[21] = micro serial dilution (in brackets), about 18 hours, 30° C. or 37° C.

CC1(C)S[C@@H]2[C@H](NC(=O)Cc3ccccc3)C(=O)N2[C@H]1C(=O)O [Penicillin G]
MIC [1, 21]: 0.5 µg/mL (≈ 1.5 µM)
MIC [2, 21]: > 100 µg/mL
MIC [3, 21]: 0.13 µg/mL (≈ 0.389 µM)
MIC [4]: 0.25 µg/mL (≈ 0.748 µM)
MIC [5, 21]: 4 µg/mL (≈ 12 µM)
MIC [6, 21]: > 100 µg/mL
MIC [7, 21]: 7.5 µg/mL (≈ 22.4 µM)
MIC [8]: 0.25 µg/mL (≈ 0.748 µM)
MIC [9, 21]: > 100 µg/mL
MIC [10, 21]: 100 µg/mL (≈ 299 µM)
MIC [11, 21]: 25 µg/mL (≈ 74.8 µM)
MIC [12, 21]: 0.2 µg/mL (≈ 0.598 µM)
MIC ([13]; A321, micro serial dilution (in brackets), about 18 hours, 30° C. or 37° C.): 0.03 µg/mL (≈ 0.0897 µM)
MIC [14, 21]: 0.5 µg/mL (≈ 1.5 µM)
MIC ([15]; U20, micro serial dilution (in brackets), about 18 hours, 30° C. or 37° C.): 40 µg/mL (≈ 120 µM)
MIC ([16]; ATCC6633, micro serial dilution (in brackets), about 18 hours, 30° C. or 37° C.): 0.006 µg/mL (≈ 0.0179 µM)
MIC ([17]; A355, micro serial dilution (in brackets), about 18 hours, 30° C. or 37° C., penicillinase-producing strain): 10 µg/mL (≈ 29.9 µM)
MIC [18, 21]: 0.013 µg/mL (≈ 0.0389 µM)
MIC [19, 21]: 5 µg/mL (≈ 15 µM)
MIC [20, 21]: 100 µg/mL (≈ 299 µM)

CC1(C)S[C@@H]2[C@H](NC(=O)COc3ccccc3)C(=O)N2[C@H]1C(=O)O [Penicillin V]
MIC ([1]; 18 h): 10 µg/mL (≈ 28.5 µM)
MIC ([2]; 18 h): 100 µg/mL (≈ 285 µM)
MIC ([3]; 18 h): 1 µg/mL (≈ 2.85 µM)
MIC [4]: 5 µg/mL (≈ 14.3 µM)
MIC ([5]; 18 h): 5 µg/mL (≈ 14.3 µM)
MIC ([6]; 18 h): > 100 µg/mL
MIC ([7]; 18 h): 100 µg/mL (≈ 285 µM)
MIC [8]: 1 µg/mL (≈ 2.85 µM)
MIC ([9]; 18 h): > 100 µg/mL
MIC ([10]; 18 h): > 100 µg/mL
MIC ([11]; 18 h): 100 µg/mL (≈ 285 µM)
MIC ([12]; 18 h): 0.75 µg/mL (≈ 2.14 µM)
MIC ([13]; A321, 18 h): 0.045 µg/mL (≈ 0.128 µM)
MIC [14]: 1 µg/mL (≈ 2.85 µM)
MIC ([15]; U20, 18 h): 100 µg/mL (≈ 285 µM)
MIC ([16]; ATCC6633, 18 h): 0.002 µg/mL (≈ 0.00571 µM)
MIC ([17]; A355, 18 h): 25 µg/mL (≈ 71.3 µM)
MIC ([18]; 18 h): 0.2 µg/mL (≈ 0.571 µM)
MIC ([19]; 18 h): > 100 µg/mL
MIC ([20]; 18 h): 100 µg/mL (≈ 285 µM)

Reference: US4160829A, “Antibacterial 1,2,4-oxadiazolylacetamido cephalosporins” (Gist-Brocades N.V., priority 1972, dated 1979)
